Data on 1 molecule can be found in US20220288001A1, “CREATINE FOR IMMUNOTHERAPY” (The Regents of the University of California, priority 2019, published 2022).

Assay [1] has as its system tumor-infiltrating CD8 T cells. The assay can be described thus: Flow cytometry phenotype of tumor-infiltrating CD8 T cells in B16-OVA model. Conditions: B16-OVA tumors collected day 17; creatine supplementation. The class given is in vivo, mouse. The text has this: Fluorochrome-conjugated monoclonal antibodies specific for mouse CD45.2 (cat #109820; clone 104), TCRβ (cat #109220; clone H57-597), CD4 (cat #100531; clone RM4-5), IFN-γ (cat #505806; clone XMG1.2), Granzyme B (cat #372208; clone QA16A02). TCR Vα2 (cat #127809; clone B20.1), CD69 (cat #104508; clone H1.2F3), CD25 (cat #102006; clone PC61), CD8 (cat #100732: clone 53-6.7), CD44 (cat #103030; clone IM7), LAG-3 (CD223) (cat #125207; clone C9B7W), and Tim-3 (CD366) (cat #119705; clone RMT3-23) were purchased from BioLegend. […] Stained cells were analyzed using a MACSQuant Analyzer 10 Flow Cytometer (Miltenyi Biotee). […] To assess gene expression, CD45^+ immune cells were sorted from TIIs using flow cytometry then analyzed for CrT mRNA expression using qPCR. To assess T cell activation status, TIIs were analyzed for surface activation marker (CD25 and PD-1) expression using flow cytometry. […] TIIs were analyzed for intracellular Granzyme B expression using flow cytometry. To assess T cell cytokine production, Tis were stimulated with PMA (50 ng/ml)+Ionomycine (500 ng/ml) in the presence of GolgiStop (4 μl per 6 ml culture) for 4 hours, then analyzed for intracellular cytokine (IL-2 and IFN-γ) production using flow cytometry. […]

A further assay deals with Zap-70. The assay can be described thus: Western blot of TCR proximal signaling in CD8 T cells with creatine supplementation. Format: cell-based, mouse. Conditions: CrT-WT CD8 T cells; creatine 0.5 mM; anti-CD3 stimulation. How it is done: CD8 T cells were cultured in vitro in standard T cell culture medium comprising RPMI 1640 (Cat #10040, Corning), 10% FBS (Cat #F2442, Sigma), 1% Penicillin-Streptomycin-Glutamine (Cat #10378016, Gibco), 1% MEM Non-Essential Amino Acids Solution (Cat #11140050, Gibco), 1% HEPES (Cat #15630080, Gibco), 1% Sodium Pyruvate (100 mM) (Cat #11360070, Gibco), and 0.05 mM β -Mercaptoethanol (Cat #M3148, Sigma). Unless otherwise indicated, cells were seeded at 0.5×10^6 cells per well in 24-well plates and stimulated with plate-bound anti-CD3 (5 μg/ml) (clone 145-2C11), for up to 5 days. At indicated time point(s), cells were collected and analyzed for CrT mRNA expression using qPCR, for cell proliferation through cell counting, for viability through Annexin V/7-AAD staining followed by flow cytometry analysis, for surface activation marker (CD25) expression through surface staining followed by flow cytometry analysis, for effector molecule (Granzyme B, IL-2, and IFN-γ) production through intracellular staining followed by flow cytometry analysis, and for cytokine (IL-2 and IFN-γ) secretion through collecting cell culture supernatants followed by ELISA analysis. CrT protein expression and TCR signaling events were analyzed using western blot analysis. […]
In general terms: A western blot detects proteins with antibodies after separation by electrophoresis.

Regarding `CN(CC(=O)O)C(=N)N` [creatine], the ““exhaustion-prone” phenotype cells (PD-1hiCD62Llo) among tumor-infiltrating CD8 T cells” value in assay [1] is recorded as “significant reduction”. The Zap-70 phosphorylation entry in the assay on Zap-70 is “significantly increased”.
